The values below come from ChEMBL document CHEMBL1133024, “Antineoplastic agents. 443. Synthesis of the cancer cell growth inhibitor hydroxyphenstatin and its sodium diphosphate prodrug” (J Med Chem, 2000).

The test system of test [1] is SF-295. In words: Evaluated for growth inhibition (anticancer activity) of Human CNS cancer SF-295 cell line. The test is classed as functional.
Test [2] relates to NCI-H460. In words: Evaluated for growth inhibition (anticancer activity) of Human lung-NSC cancer NCI-H460 cell line. The test is classed as functional.
The test system of test [3] is DU-145. The test can be described thus: Evaluated for growth inhibition (anticancer activity) of Human prostate cancer DU-145 cell line. The format is functional.
The subject of another test is P388. The test can be described thus: Evaluated for growth inhibition (anticancer activity) of Murine P388 lymphocytic leukemia cell line. The conditions noted are these: Mus musculus. The test is classed as functional.
Another test deals with BXPC-3. In words: Evaluated for growth inhibition (anticancer activity) of human pancreas-a BXPC-3 cell line. The format is functional.
The next test deals with Candida albicans. In words: Evaluated for antimicrobial activity against Candida albicans. The format is functional.
The test system of another test is Cryptococcus neoformans. The test can be described thus: Evaluated for antimicrobial activity against Cryptococcus neoformans. The format is functional.
In a further test the test system is Escherichia coli. In words: Evaluated for antimicrobial activity against Escherichia coli. The test is classed as functional.
A further test deals with Neisseria gonorrhoeae. In words: Evaluated for antimicrobial activity against Neisseria gonorrhoeae. The test is classed as functional.
The next test relates to KM-20L2. In words: Evaluated for growth inhibition (anticancer activity) of Human colon KM20L2 cancer cell line. The test is classed as functional.
The target in another test is Tubulin alpha chain (Sus scrofa, UniProt P02550). In words: Inhibition of tubulin polymerization. The test is classed as functional.
For test [4], the system named is DU-145. In words: Evaluated for growth inhibition (anticancer activity) in Human prostate cancer DU-145 cell line. The test is classed as functional.
Test [5] relates to Stenotrophomonas maltophilia. The test can be described thus: Evaluated for antimicrobial activity against Stenotrophomonas maltophilia. The format is functional.
The next test relates to Staphylococcus aureus. In words: Evaluated for antimicrobial activity against Staphylococcus aureus. The test is classed as functional.
The test system of the next test is RPMI-7951. In words: Evaluated for growth inhibition (anticancer activity) of Human melanoma cancer RPMI-7951 cell line. The format is functional.
A further test deals with Micrococcus luteus. The test can be described thus: Antimicrobial activity against Micrococcus luteus. The test is classed as functional.
The target in test [6] is Tubulin alpha chain (Sus scrofa) (UniProt P02550). The test can be described thus: Inhibition of colchicine binding. The test is classed as functional. The conditions noted are these: concentration not given here.
Test [7] has as its system NCI-H460. In words: Evaluated for growth inhibition (anticancer activity) of Human lung-NSC cancer NCI-H460 cell line.
In test [8] the test system is SF-295. In words: Evaluated for growth inhibition (anticancer activity) in Human CNS cancer SF-295 cell line. The format is functional.

Values after ≈ are worked out from the molar mass of the structure shown. A value given as a limit tells only on which side of the number the result lay.

Chain of Tubulin alpha chain (P02550 whole entry, looked up): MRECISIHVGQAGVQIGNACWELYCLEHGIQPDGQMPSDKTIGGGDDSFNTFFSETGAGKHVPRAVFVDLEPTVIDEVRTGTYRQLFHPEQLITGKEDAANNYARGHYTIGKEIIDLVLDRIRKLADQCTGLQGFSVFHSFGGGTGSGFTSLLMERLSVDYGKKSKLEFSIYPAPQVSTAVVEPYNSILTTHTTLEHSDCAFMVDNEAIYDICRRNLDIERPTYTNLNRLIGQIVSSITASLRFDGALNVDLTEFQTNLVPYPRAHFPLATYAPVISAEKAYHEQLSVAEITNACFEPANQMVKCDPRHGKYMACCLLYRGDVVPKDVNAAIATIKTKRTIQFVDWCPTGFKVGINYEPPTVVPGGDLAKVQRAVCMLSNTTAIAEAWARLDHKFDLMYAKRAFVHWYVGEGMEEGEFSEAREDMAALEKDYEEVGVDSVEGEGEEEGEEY
Chain of Tubulin alpha chain (Sus scrofa) (P02550 whole entry, looked up): as above

With `COc1cc(C(=O)c2ccc(OC)c(OC)c2OC)cc(OC)c1OC`, the 50% growth inhibitory concentration (GI50) in the test with SF-295 [1] was 23.1 µg/mL (≈ 63.7 µM); with NCI-H460 [2], 19 µg/mL (≈ 52.4 µM); in the test with DU-145 [3], 32.5 µg/mL (≈ 89.7 µM); in the test with P388, > 10 µg/mL; in the test with BXPC-3, 14.2 µg/mL (≈ 39.2 µM).
Take `COc1ccc(Br)c(C=O)c1OC(C)=O`: the MIC in the test with Candida albicans is listed as 12.5 ug disk-1; in the test on Cryptococcus neoformans, 6.25 ug disk-1; against Escherichia coli, 50 ug disk-1; in the test on Neisseria gonorrhoeae, 25 ug disk-1.
`COc1cc(C(=O)c2ccc(OC)c(OP(=O)([O-])[O-])c2OP(=O)([O-])[O-])cc(OC)c1OC.[Na+].[Na+].[Na+].[Na+]`: the 50% growth inhibitory concentration (GI50) with SF-295 [1] came to 0.23 µg/mL; in the test with KM-20L2 it was 33.5 µg/mL; with NCI-H460 [2], 0.35 µg/mL; with DU-145 [3] it was 0.3 µg/mL; in the test on P388, 0.0336 µg/mL; in the test on BXPC-3 it was 5.3 µg/mL. In addition, the IC50 against Tubulin alpha chain is > 40000 nM.
Take `COc1ccc(Br)c(C=O)c1O`: the MIC is recorded as 50 ug disk-1 against Candida albicans, 12.5 ug disk-1 in the test with Cryptococcus neoformans and 12.5 ug disk-1 against Neisseria gonorrhoeae.
Turning to `COc1cc(/C=C\c2ccc(OC)c(OP(=O)([O-])[O-])c2OP(=O)([O-])[O-])cc(OC)c1OC.[Na+].[Na+].[Na+].[Na+]`, the GI50 was 0.036 µg/mL with SF-295 [1]; 0.038 µg/mL in the test with NCI-H460 [2]; 0.034 µg/mL in the test on DU-145 [4]; < 0.01 µg/mL in the test on P388; 1.5 µg/mL in the test with BXPC-3.
In the case of `COc1cccc(C=O)c1OC(C)=O`, the MIC with Cryptococcus neoformans is on record as 25 ug disk-1; in test [5], 50 ug disk-1.
As for `COc1ccc(Br)c(O)c1O`, the MIC against Escherichia coli is listed as 50 ug disk-1; in the test with Neisseria gonorrhoeae, <6.25 ug disk-1; against Staphylococcus aureus, 25 ug disk-1; in [5], 25 ug disk-1.
Consider `COc1cc(C(=O)c2ccc(OC)c(OP(=O)(OCc3ccccc3)OCc3ccccc3)c2OP(=O)(OCc2ccccc2)OCc2ccccc2)cc(OC)c1OC`, for which the GI50 with SF-295 [1] is > 10 µg/mL; with KM-20L2, 5.9 µg/mL (≈ 6.9 µM); in the test on RPMI-7951 it was > 10 µg/mL; with NCI-H460 [2], > 10 µg/mL; in the test with DU-145 [3], > 10 µg/mL; in the test on P388, 2.55 µg/mL (≈ 2.98 µM). The 50% growth inhibitory concentration (GI50) in the test on BXPC-3 is > 10 µg/mL. The compound also registered an MIC in the test on Micrococcus luteus of 50 µg/mL (≈ 58.5 µM).
With `COc1ccc(/C=C\c2cc(OC)c(OC)c(OC)c2)c(O)c1O` [COMBRETASTATIN A-1], the 50% growth inhibitory concentration (GI50) in the test with KM-20L2 was found to be 0.061 µg/mL (≈ 0.184 µM); with DU-145 [3] it was 0.17 µg/mL (≈ 0.512 µM); in the test with P388, 0.3 µg/mL (≈ 0.903 µM); in the test with BXPC-3, 4.4 µg/mL (≈ 13.2 µM); in the test with NCI-H460 [7] it was 0.74 µg/mL (≈ 2.23 µM). Besides, at Tubulin alpha chain, the IC50 was determined as 1100 nM. Further, the inhibition in [6] was found to be 99.6%.
`COc1ccc(/C=C\c2cc(OC)c(OC)c(OC)c2)cc1OP(=O)([O-])[O-].[Na+].[Na+]` [FOSBRETABULIN DISODIUM]: the concentration for 50% growth inhibition (GI50) is 0.53 µg/mL with KM-20L2, 0.0004 µg/mL with P388, 0.036 µg/mL in the test on SF-295 [8] and 0.029 µg/mL with NCI-H460 [7]. Further, at Tubulin alpha chain, the half-inhibitory concentration (IC50) is > 40000 nM.
As to `COc1ccc(C(=O)c2cc(OC)c(OC)c(OC)c2)c(O)c1O` [HYDROXYPHENSTATIN], the GI50 in the test on SF-295 [1] turned out to be 0.04 µg/mL (≈ 0.12 µM); with RPMI-7951, 0.58 µg/mL (≈ 1.73 µM); with NCI-H460 [2] it was 0.21 µg/mL (≈ 0.628 µM); in the test with DU-145 [3], 0.048 µg/mL (≈ 0.144 µM); in the test with P388, 0.315 µg/mL (≈ 0.942 µM); in the test on BXPC-3, 3.5 µg/mL (≈ 10.5 µM). For the same compound, at Tubulin alpha chain, the IC50 is 820 nM. The inhibition in test [6] worked out at 77%.
Consider `COCOc1c(OC)ccc(C(=O)c2cc(OC)c(OC)c(OC)c2)c1OCOC`, for which the concentration for 50% growth inhibition (GI50) with SF-295 [1], in the test with RPMI-7951, in the test on NCI-H460 [2], in the test on DU-145 [3], in the test on P388 and with BXPC-3 was > 10 µg/mL in each case. Besides, the inhibition in [6] is > 10%.
Take `COc1ccc(/C=C\c2cc(OC)c(OC)c(OC)c2)cc1O` [COMBRETASTATIN A4]: the GI50 with SF-295 [1] was > 0.001 µg/mL; with KM-20L2, 0.34 µg/mL (≈ 1.07 µM); in the test with NCI-H460 [2], 0.0006 µg/mL (≈ 0.0019 µM); in the test with DU-145 [3], 0.0008 µg/mL (≈ 0.00253 µM); in the test on P388, 0.0003 µg/mL (≈ 0.000948 µM); in the test on BXPC-3, 0.39 µg/mL (≈ 1.23 µM).
